Consider eight compounds from US5470737A, “Stably-transformed cells expressing human thiopurine methyltransferase” (priority 1994, dated 1995).

SMILES strings stand for the structures. “Also recorded” adds a separate entry of the source. Where two headings read alike, the source gives them in different places.

Data set [1] concerns the target T1, TPMT, human kidney 100,000×g supernatant (Homo sapiens, UniProt P51580).
T1 construct: renal tissue was homogenized in 5 mM potassium phosphate buffer, pH 7.5, with a Polytron homogenizer, and a 100,000×g supernatant was prepared; from tissue; host or cells: human kidney (renal tissue)
T1 sequence (P51580 1-245): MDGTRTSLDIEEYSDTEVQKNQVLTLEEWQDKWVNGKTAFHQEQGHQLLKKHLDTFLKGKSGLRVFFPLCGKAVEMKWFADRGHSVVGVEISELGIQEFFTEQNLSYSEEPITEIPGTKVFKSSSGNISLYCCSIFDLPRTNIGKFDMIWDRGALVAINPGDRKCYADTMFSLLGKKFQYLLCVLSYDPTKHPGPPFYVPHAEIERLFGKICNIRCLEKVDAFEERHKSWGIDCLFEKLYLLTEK
Briefly: Panel of methyltransferase inhibitors and ions, human kidney 100,000×g supernatant. It counts as biochemical. How it is done:
Renal tissue was obtained either during autopsy or from patients undergoing clinically indicated nephrectomies. Hepatic tissue was obtained from patients who underwent clinically indicated partial hepatectomies for the removal of primary or metastatic hepatic tumors. All tissue was obtained under guidelines approved by the Mayo Clinic Institutional Review Board. Macroscopically normal tissue was stored at -80° C., conditions under which TPMT activity is stable (C. L. Szumlanski et al., Pharmacogenetics, 2, 148 (1992); J. A. Van Loon et al., Drug Met. Disposit., 18, 632 (1990)). Prior to enzyme purification, renal tissue was homogenized in 5 mM potassium phosphate buffer, pH 7.5, with a Polytron homogenizer, and a 100,000×g supernatant was prepared as described by L. C. Woodson et al., Biochem. Pharmacol., 32, 819 (1983). Amino acid sequence information was obtained with TPMT purified from human renal tissue--a tissue with a high specific activity for the enzyme.
(§1) TPMT activity in renal tissue was measured by the method of R. M. Weinshilboum et al., in Clin. Chim. Acta, 85, 323 (1978) as modified by L. C. Woodson et al., Biochem. Pharmacol., 32, 819 (1983) to assay the enzyme in human kidney preparations. […] Ado-Met as the methyl donor. Assay conditions for the measurement of TPMT in T84 human colon carcinoma cells and in COS-1 cells were identical with those used to measure the enzyme activity in human renal tissue. One unit of TPMT activity represented the formation of 1 nmol of 6-MMP per hr of incubation at 37° C.
(§2) Finally, the response of the TPMT expressed in COS-1 cells to a panel of methyltransferase inhibitors and ions was compared with that of TPMT activity in human kidney 100,000×g supernatant, partially purified human kidney Peak I TPMT and T84 cell TPMT (Table 3).

The next data set deals with T2, human kidney TPMT Peak I (Homo sapiens, UniProt P51580).
T2 construct: Human renal tissue contains two isoforms of TPMT, Peak I and Peak II, that can be separated by DEAE ion exchange chromatography; from tissue; host or cells: human kidney, DEAE Peak I, gel filtration
T2 sequence (P51580 1-245): T1 sequence (P51580 1-245)
Briefly: Panel of methyltransferase inhibitors and ions, human kidney Peak I TPMT. It is filed as biochemical.
Source text: Human renal tissue contains two isoforms of TPMT, Peak I and Peak II, that can be separated by DEAE ion exchange chromatography as reported by J. A. Van Loon et al., Biochem. Genet., 20, 637 (1982). The two isoforms were separated by DEAE ion exchange chromatography, and the Peak I enzyme was then purified by gel filtration chromatography performed with Sephadex G-100 superfine as described by J. A. Van Loon et al., cited above. In some experiments, hydroxylapatite chromatography performed as described by J. A. Van Loon et al., in Biochem. Pharmacol., 44, 775 (1992) was added as a third purification step.
as §1, §2

A further data set addresses T3, T84 cell TPMT (Homo sapiens, UniProt P51580).
T3 construct: Cytosol from T84 cells did contain TPMT enzymatic activity; host or cells: T84 human colon carcinoma cells
T3 sequence (P51580 1-245): T1 sequence (P51580 1-245)
Briefly: Panel of methyltransferase inhibitors and ions, T84 cell 100,000×g supernatant. It counts as biochemical. How it is done:
as §1
T84 human colon carcinoma cells (American Type Culture Collection, Rockville, Md.) were grown to confluence in an equal volume mixture of Dulbecco's modified Eagle's medium (DMEM) and Ham's F12 media with 5% fetal calf serum. The cells were then harvested, cell pellets were washed in phosphate buffered saline (PBS), and the pellets were homogenized for 30 sec in 1 ml of 5 mM potassium phosphate buffer, pH 7.5, with a Polytron homogenizer. Homogenates of the cells were centrifuged at 100,000×g for 1 hr at 4° C., and the supernatant was used to assay TPMT activity and to determine selected biochemical properties of the enzyme.
as §2

Data set [2] addresses T4, TPMT expressed in COS-1 cells transfected with T84 TPMT cDNA (Homo sapiens, UniProt P51580).
T4 construct: digested with SstI to excise the coding region, the 5'-untranslated region and a portion (ca. 600 nucleotides) of the 3'-untranslated region; expressed in transfected cells; host or cells: COS-1 (simian), vector P91023(B)
T4 sequence (P51580 1-245): T1 sequence (P51580 1-245)
Briefly: Panel of methyltransferase inhibitors and ions, COS-1 cells transfected with T84 TPMT cDNA. It is filed as biochemical. How it is done:
TPMT activity in renal tissue was measured by the method of R. M. Weinshilboum et al., in Clin. Chim. Acta, 85, 323 (1978) as modified by L. C. Woodson et al., Biochem. Pharmacol., 32, 819 (1983) to assay the enzyme in human kidney preparations. […] Assay conditions for the measurement of TPMT in T84 human colon carcinoma cells and in COS-1 cells were identical with those used to measure the enzyme activity in human renal tissue. One unit of TPMT activity represented the formation of 1 nmol of 6-MMP per hr of incubation at 37° C.
Simian COS-1 cells were then plated in 100-mm dishes at a density of 1.5-1.8×10^6 cells/dish in DMEM with 10% fetal calf serum, and were allowed to grow overnight. Three dishes of cells were used for each transfection. Purified "sense" plasmid vector (0.5 μg) was mixed with DEAE-dextran and DMEM, and the mixture was added to the cell culture dishes, following the procedures of J. H. McCutchan et al., J. Natl. Cancer Inst., 41, 351 (1988) and R. J. Kaufman et al., Mol. Cell. Biol., 9, 946 (1989). Control cells were treated with no DNA, with expression vector alone, or with constructs that contained the cDNA clone in an antisense orientation. After 1 hr, the DNA-DEAE-dextran solution was replaced for 2 min with DMEM that contained 10% dimethylsulfoxide, followed by incubation for 2 hr in 0.1 mM chloroquine in DMEM following the procedure of H. Luthman et al., Nucl. Acids Res., 11, 1295 (1983). Cells were then grown for 40-42 hr in DMEM with 10% fetal calf serum. The cells from each transfection were harvested and pooled, cell pellets were washed in 5 ml of PBS, and the cell pellets were homogenized for 30 sec in 2 ml of 5 mM potassium phosphate buffer, pH 7.5. Homogenates were centrifuged at 15,000×g for 15 min at 4° C., supernatants from that step were centrifuged at 100,000×g for 1 hr at 4° C., and 0.25 μl aliquots of 100,000×g supernatant preparations were then assayed for transient expression of TPMT enzymatic activity.

The target in data set [3] is T5, TPMT (Homo sapiens, UniProt P51580).
T5 construct: T84 cDNA transiently expressed in COS-1 cells, plus native human kidney 100,000×g supernatant, partially purified kidney Peak I and T84 cell enzyme
T5 sequence (P51580 1-245): T1 sequence (P51580 1-245)
Briefly: Inhibition of TPMT, all sources of enzyme (summary in words). It counts as biochemical.
Source text: as §2
As shown by the data in Table 3, the results were nearly identical for all sources of enzyme and each activity was inhibited by the TPMT reaction products, Ado-Hcy and 6-MMP. However, the enzyme was not affected by inhibitors of other methyltransferase enzymes.

Data set [4] relates to thiol methyltransferase (TMT). Particulars: cited from earlier work.
Data set [5] concerns histamine N-methyltransferase (HNMT). Particulars: cited from earlier work.
The next data set concerns the target T6, human kidney TPMT (Homo sapiens, UniProt P51580).
T6 construct: to assay the enzyme in human kidney preparations; host or cells: human kidney
T6 sequence (P51580 1-245): T1 sequence (P51580 1-245)
Conditions: read-out: Apparent Km value for Ado-Met; cited from earlier work.

Data set [6] concerns patients with genetically low or undetectable RBC TPMT activity. Particulars: patients lacking or with low TPMT activity; cited from earlier work.
Data set [7] has as its system TPMT. Conditions: cited from earlier work.
Data set [8] has as its system catechol O-methyltransferase (COMT). Particulars: cited from earlier work.
Setting [9] is: read-out: Activity Remaining, %.

In the case of `CC(N)c1cccc(Cl)c1Cl` (stereo not drawn) [DCMB, 2,3-dichloro-α-methylbenzylamine], the remaining activity (as a rule, the signal under treatment as a percentage of the control signal) at 1000 µM in data set [1] (setting [9]) turned out to be 95%; at human kidney TPMT Peak I (setting [9]), 95%; at T84 cell TPMT (setting [9]), 99%; in data set [2] (setting [9]), 95%. Further, the “effect on TPMT activity (in words)” value on TPMT [3] was “not affected”. For the same compound, the “inhibition of thiol methyltransferase (in words)” value in [4] is recorded as “inhibitors of thiol methyltransferase”.

Consider `CCCC(C(=O)OCCN(CC)CC)(c1ccccc1)c1ccccc1` [SKF-525A], for which the remaining activity at 500 µM in data set [1] (human kidney 100,000×g supernatant, 0.5 mM) turned out to be 107%; at human kidney TPMT Peak I (human kidney TPMT Peak I, 0.5 mM), 98%; at T84 cell TPMT (T84 cell 100,000×g supernatant, 0.5 mM), 102%; in data set [2] (COS-1 cells transfected with T84 TPMT cDNA, 0.5 mM), 101%. The “effect on TPMT activity (in words)” value at TPMT [3] is recorded as “not affected”. Further, the “inhibition of thiol methyltransferase (in words)” value in data set [4] was “inhibitors of thiol methyltransferase”.

Regarding `Nc1ncnc2c1ncn2[C@@H]1O[C@H](CSCC[C@H](N)C(=O)O)[C@@H](O)[C@H]1O` [Ado-Hcy, S-adenosyl-L-homocysteine], the remaining activity at 100 µM (in [1] (setting [9]); on human kidney TPMT Peak I (setting [9]); on T84 cell TPMT (setting [9]); in [2] (setting [9])) was 5% in each case. In addition, at TPMT [3], the “effect on TPMT activity (in words)” value is recorded as “inhibited”.

Consider `CCN(CC)Cc1cc(Nc2ccnc3cc(Cl)ccc23)ccc1O` [Amodiaquine], for which the remaining activity at 1000 µM in [1] (human kidney 100,000×g supernatant, 1 mM, read-out: Activity Remaining, %) came out at 97%; at human kidney TPMT Peak I (human kidney TPMT Peak I, 1 mM, read-out: Activity Remaining, %), 90%; at T84 cell TPMT (T84 cell 100,000×g supernatant, 1 mM, read-out: Activity Remaining, %) it was 96%; in [2] (COS-1 cells transfected with T84 TPMT cDNA, 1 mM, read-out: Activity Remaining, %), 95%. Besides, at TPMT [3], the “effect on TPMT activity (in words)” value is given as “not affected”. Further, the “inhibition of histamine N-methyltransferase (in words)” value in data set [5] is reported as “an inhibitor of histamine N-methyltransferase”.

Turning to `CSc1ncnc2nc[nH]c12` [6-MMP, 6-methylmercaptopurine], the remaining activity at 5000 µM came to 26% in [1] (human kidney 100,000×g supernatant, 5 mM); 30% at human kidney TPMT Peak I (human kidney TPMT Peak I, 5 mM); 27% at T84 cell TPMT (T84 cell 100,000×g supernatant, 5 mM); 29% in data set [2] (COS-1 cells transfected with T84 TPMT cDNA, 5 mM). For the same compound, the “effect on TPMT activity (in words)” value at TPMT [3] was “inhibited”.

Regarding `C[S+](CC[C@H](N)C(=O)O)C[C@H]1O[C@@H](n2cnc3c(N)ncnc32)[C@H](O)[C@@H]1O` (stereo partly drawn) [Ado-Met, S-adenosyl-L-methionine], the Km – broadly, the concentration of substrate that gives half-maximal velocity – on human kidney TPMT is 2.7 µM.

As for `Cn1cnc([N+](=O)[O-])c1Sc1ncnc2nc[nH]c12` [azathioprine], in data set [6], the “risk of myelosuppression (in words)” value is recorded as “even more at risk for the occurrence of severe myelosuppression; also recorded: greatly increased risk for the development of life-threatening thiopurine-induced myelosuppression”. Besides, in the data set on TPMT [7], the “substrate for TPMT (in words)” value is on record as “substrates for TPMT”.

As for `[Ca+2].[Cl-].[Cl-]` [CaCl2], the “Activity Remaining, %” value was found to be 96% in data set [1] (human kidney 100,000×g supernatant, 1 mM); 97% at human kidney TPMT Peak I (human kidney TPMT Peak I, 1 mM); 95% on T84 cell TPMT (T84 cell 100,000×g supernatant, 1 mM); 96% in data set [2] (COS-1 cells transfected with T84 TPMT cDNA, 1 mM). For the same compound, the “effect on TPMT activity (in words)” value at TPMT [3] is recorded as “not affected”. For the same compound, in data set [8], the “inhibition of catechol O-methyltransferase (in words)” value is given as “an inhibitor of catechol O-methyltransferase”.
